Reference: patent US8859615B2, “Compounds, compositions and methods for reducing toxicity and treating or preventing diseases” (priority 2008, dated 2014)
“Also recorded” adds a separate entry of the source. Read-outs that look alike come from different tables or passages of the source.

Experiments:
leukemic CCRF CEM cells = assay: Precursor incorporation into DNA, RNA and protein (Table 9); type: cell-based, human
Experimental: The radioactive tracer studies were carried out as described by Chou T C, et al. Cancer Res. 43: 3074-3079, 1983.

[1] = test system: human mammary carcinoma MX-1 xenograft; assay: Therapeutic effect and body weight in nude mice bearing MX-1 xenograft, single agents; settings: for antitumor effects against MX-1 xenografts: mouse, in vivo; for body weight decrease upon treatment: up to the highest dosage levels (100 mg/kg)
Experimental: FIGS. 1A and 1B show the therapeutic, anti-cancer effects of various dosage regimens of panaxytriol and Compound (A), respectively, given by i.v. injection in nude mice bearing human mammary carcinoma MX-1 xenograft tumors, which is an in vivo model for breast cancer. […] The compounds were administered starting on day 8.
An in vivo assay uses male athymic nude mice bearing the nu/nu gene (6 weeks of age or older, weighing between 20 and 22 g, obtainable from NCl, Frederick, Md.) into which one or more human tumor xenografts are been implanted.
Nude mice having human mammary carcinoma xenograft MX-1 were treated with panaxytriol or Compound (A) at various dosages through the slow i.v. infusion protocol by Chou et al. (Chou, T. C., et al, Proc. Natl. Acad. Sci. U.S.A. 95: 15798 (1998), the contents of which are herein incorporated by reference in their entirety).

[2] = test system: normal human PBMC lymphocytes; assay: Human PBMC lymphocyte viability by actual cell counts (hemacytometer; Tables 8A, 8B, FIG. 9); type: cell-based; settings: for survival / proliferation of normal PBMC lymphocytes: low concentrations, Tables 8
Excerpt: (§1) FIGS. 9A & 9B show effects of panaxytriol and Compound D, respectively, in varying doses at 24 (▪), 72 (●), and 120 (▴) hours on human PBMC lymphocyte survival based on actual cell counts. In both cases, lower amounts of the compounds increase cell proliferation. […] Cell counts in controls without active agent were: at 24 hrs: 75.4%; at 72 hrs: 93.0%; and at 120 hrs: 85.7%. FIG. 9 parallel the experiments in FIG. 8 but used a different method to determine cell survival; the method used in FIG. 9 was actual cell counting using a hemocytometer and microscope.
(§2) The effects of panaxytriol and Compound D on the viability of normal human PBMC lymphocytes shown in Tables 8A and 8B were determined using hemacytometer/microscope determinations. PBMC cells were obtained fresh from the New York Blood Center, New York, N.Y. 10021 (Dr. S. B. Jiang). Cell counts were performed in duplicate for 0, 0.1, 0.3, 1.0, 3.0, and 10.0 μM of each compound at the end of 24 hr, 72 hr, and 120 hr incubations. Incubation was carried out in RPMI 1640 medium (GIBCO/BRL) with 10% heat inactivated fetal bovine serum. […] Acad. Sci. USA 98: 8113-8118, 2001.

[3] = as above; type: cell-based; settings: human
Excerpt: as §1, §2

human PBMC lymphocytes = assay: DNA synthesis ([3H]thymidine incorporation) in human PBMC lymphocytes (FIG. 8); type: cell-based; settings: for maximal human lymphocyte stimulation concentration: at 120 hrs, FIG. 8B, C, D
Excerpt: FIG. 8 show the effects of PHA and different concentrations of compounds of the invention, at different time points, on the proliferation of a culture of human lymphocytes as measured by DNA synthesis through incorporation of radiolabeled thymidine into the DNA.
The main principle and method of experiments for human PBMC lymphocytes and for mouse splenocytes stimulations were the same, since both measure immunological cell stimulation by PHA, PXT and compounds of the invention. Both the lymphocyte and the splenocyte assays measure the ^3H-dThd tracer as an indication of DNA synthesis. For PBMC lymphocytes (FIGS. 9A-9G), the experimental methods are those for splenocytes disclosed in Example 24 (FIGS. 11A-11F; FIGS. 12A-12E), except 0.282×10^6 PBMC lymphocyte cells in 198.5 μl was used, and the experimental incubation time was extended to 120 hr.
Briefly, to generate the data in Tables 8A and 8B, the compounds were tested in a [^3H] thymidine uptake experiment using PBMC human lymphocytes obtained from the New York Blood Center. PBMC human lymphocytes were exposed to compounds at 0.03, 0.1, 0.3, and 1.0 μM for 24 hours, and examined for increased [^3H] thymidine uptake. Human lymphocytes were also exposed to compounds for an extended time, e.g., 48 hrs and 72 hrs, instead of 24 hrs, in the [^3H] thymidine uptake assay, and examined to determine the extent of increased [^3H] thymidine uptake to determine if extended exposure will further increase the immune-enhancing effects of the compounds. Increased [^3H] thymidine uptake is interpreted as increased DNA synthesis, which indicates cell growth and division. In the case of immune system cells, this should result in an immune-enhancing effect. The compounds are compared by their IC50 values and/or their effect on [^3H] thymidine uptake at a given concentration and/or time point.

human PMBC lymphocytes = assay: Time course of effects on proliferation of human lymphocytes (XTT and CCK-8; Table 6); type: cell-based; settings: Lymphocyte, read-out: Dm
Experimental: Absorbance was measured by Powerwave a XS microplate spectrophotometer.
The effect of compounds of the invention on the proliferation of human lymphocytes at different time points are shown in Table 6 as results of XTT and CCK-8 tetrazolium assays following 24-hour, 72-hour, and 120-hour incubation. […] Cultured human PMBC lymphocytes were used in the assay. The procedures employed are taught in the General Biological Methods section.

[4] = Homo sapiens, CCRF-CEM, 100 μM, 60 min, ↓ (inhibition), read-out: [3H] Leu → Protein (% Activation ↑ or Inhibition ↓)
[5] = low concentration (panaxytriol 30 μM, Compound D 6 μM), 15 min incubation

C=C[C@H](O)C#CC#CC[C@H]1OC(C)(C)O[C@@H]1CCCCCCC [Compound (D)]
effect on protein synthesis (leukemic CCRF CEM cells): inhibitory effects
[3H]-AdR → RNA (% Activation ↑ or Inhibition ↓) (leukemic CCRF CEM cells; 6 μM, 15 min, ↑ (activation)): 35.3 ↑ %
[3H]-dThd → DNA (% Activation ↑ or Inhibition ↓) (leukemic CCRF CEM cells; 6 μM, 15 min, ↑ (activation)): 13.2 ↑ %
[3H]-AdR → RNA (% Activation ↑ or Inhibition ↓) (leukemic CCRF CEM cells; 100 μM, 60 min, ↓ (inhibition)): 72.5 ↓ %
[3H]-dThd → DNA (% Activation ↑ or Inhibition ↓) (leukemic CCRF CEM cells; 100 μM, 60 min, ↓ (inhibition)): 69.5 ↓ %
effect on DNA and RNA synthesis (leukemic CCRF CEM cells; 100 μM, 60 min incubation): inhibitory
inhibition at 6 µM (leukemic CCRF CEM cells; Homo sapiens, CCRF-CEM, 6 μM, 15 min, ↓ (inhibition), read-out: [3H] Leu → Protein (% Activation ↑ or Inhibition ↓)): 45.2%
inhibition at 100 µM (leukemic CCRF CEM cells; [4]): 69.5%
effect on DNA and RNA synthesis (leukemic CCRF CEM cells; [5]): activate
MX-1 xenograft suppressed by the compound by itself ([1]; 10 mg/kg i.v. Q4D×4): 10%
MX-1 xenograft inhibited ([1]; 15 mg/kg Q2D×1, 40 mg/kg Q2D×4): 38.3%
effectiveness compared with panaxytriol ([1]; MX-1 xenografts): more effective at lower doses than panaxytriol
antitumor effects against MX-1 xenografts [1]: antitumor effects
high concentrations increasing cell death ([2]; human): 3 to 10 µM
survival / proliferation of normal PBMC lymphocytes [2]: increased the survival
viability at 24 h, 0.1 µM [3]: 101%
viability at 24 h, 0.3 µM [3]: 118%
viability at 24 h, 1 µM [3]: 78.4%
viability at 24 h, 3 µM [3]: 90.5%
viability at 24 h, 10 µM [3]: 7.5%
viability at 72 h, 0.1 µM [3]: 116%
viability at 72 h, 0.3 µM [3]: 108%
viability at 72 h, 1 µM [3]: 89.7%
viability at 72 h, 3 µM [3]: 66.8%
viability at 72 h, 10 µM [3]: 33.2%
viability at 120 h, 0.1 µM [3]: 78.2%
viability at 120 h, 0.3 µM [3]: 73.6%
viability at 120 h, 1 µM [3]: 102%
viability at 120 h, 3 µM [3]: 68%
viability at 120 h, 10 µM [3]: 27.4%
time of maximal stimulation of lymphocyte (human PBMC lymphocytes): 120 h
potency relative to panaxytriol (concentrations for lymphocyte or splenocyte maximal activation) (human PBMC lymphocytes; FIGS. 8, 9, 10, 11): ≥ 10 fold
maximal human lymphocyte stimulation concentration (human PBMC lymphocytes): 0.3 µM
EC50 (human PMBC lymphocytes; 24 hr incubation): 1070 nM
EC50 (human PMBC lymphocytes; 72 hr incubation): 1520 nM
EC50 (human PMBC lymphocytes; 120 hr incubation): 1760 nM

C=C[C@@H](O)C#CC#CC[C@@H](O)[C@H](O)CCCCCCC [panaxytriol]
effect on protein synthesis (leukemic CCRF CEM cells): inhibitory effects
[3H]-AdR → RNA (% Activation ↑ or Inhibition ↓) (leukemic CCRF CEM cells; 30 μM, 15 min, ↑ (activation)): 38.0 ↑ %
[3H]-dThd → DNA (% Activation ↑ or Inhibition ↓) (leukemic CCRF CEM cells; 30 μM, 15 min, ↑ (activation)): 21.3 ↑ %
[3H]-AdR → RNA (% Activation ↑ or Inhibition ↓) (leukemic CCRF CEM cells; 100 μM, 60 min, ↓ (inhibition)): 74.4 ↓ %
[3H]-dThd → DNA (% Activation ↑ or Inhibition ↓) (leukemic CCRF CEM cells; 100 μM, 60 min, ↓ (inhibition)): 67.8 ↓ %
effect on DNA and RNA synthesis (leukemic CCRF CEM cells; 100 μM, 60 min incubation): inhibitory
inhibition at 30 µM (leukemic CCRF CEM cells; Homo sapiens, CCRF-CEM, 30 μM, 15 min, ↓ (inhibition), read-out: [3H] Leu → Protein (% Activation ↑ or Inhibition ↓)): 77.8%
inhibition at 100 µM (leukemic CCRF CEM cells; [4]): 67.8%
effect on DNA and RNA synthesis (leukemic CCRF CEM cells; [5]): activate
suppression of tumor growth ([1]; 30 mg/kg): some suppression of tumor growth
tumor suppression compared to the control tumor size ([1]; Day 24, i.v. injection Q2D, escalating doses from day 8, FIGS. 1A, 1B): 52.3%
evidence of toxicity (body weight) ([1]; FIGS. 1C, 1D, i.v. injections up to 100 mg/kg): no evidence
MX-1 xenograft tumor growth suppressed by ([1]; Q2D i.v. injection 50-100 mg/kg of multiple doses (FIG. 1A)): 53%
antitumor effects against MX-1 xenografts [1]: antitumor effects
body weight decrease upon treatment [1]: no body weight decrease
body weight decrease upon treatment ([1]; listed as Panaxytriol): without a drop in body-weight
time of maximal activation (cell counts) ([2]; FIGS. 9A, 9B): 24 h
survival / proliferation of normal PBMC lymphocytes [2]: increased the survival; also recorded: increases the proliferation and prolongs the life-span of normal lymphocytes
viability at 24 h, 0.1 µM ([3]; 0.1 μM, 24-hrs, read-out: viable cells relative to the starting point (control)): 121%
viability at 72 h, 0.1 µM ([3]; 0.1 μM, 72-hrs, read-out: viable cells relative to the starting point (control)): 113%
viability at 120 h, 0.1 µM ([3]; 0.1 μM, 120-hrs, read-out: viable cells relative to the starting point (control)): 110%
viability at 24 h, 0.3 µM ([3]; 0.3 μM, 24-hrs, read-out: viable cells relative to the starting point (control)): 140%
viability at 72 h, 0.3 µM ([3]; 0.3 μM, 72-hrs, read-out: viable cells relative to the starting point (control)): 95.8%
viability at 120 h, 0.3 µM ([3]; 0.3 μM, 120-hrs, read-out: viable cells relative to the starting point (control)): 105%
viability at 24 h, 1 µM ([3]; 1.0 μM, 24-hrs, read-out: viable cells relative to the starting point (control)): 123%
viability at 72 h, 1 µM ([3]; 1.0 μM, 72-hrs, read-out: viable cells relative to the starting point (control)): 102%
viability at 120 h, 1 µM ([3]; 1.0 μM, 120-hrs, read-out: viable cells relative to the starting point (control)): 101%
viability at 24 h, 3 µM ([3]; 3.0 μM, 24-hrs, read-out: viable cells relative to the starting point (control)): 104%
viability at 72 h, 3 µM ([3]; 3.0 μM, 72-hrs, read-out: viable cells relative to the starting point (control)): 82.2%
viability at 120 h, 3 µM ([3]; 3.0 μM, 120-hrs, read-out: viable cells relative to the starting point (control)): 74.1%
viability at 24 h, 10 µM ([3]; 10.0 μM, 24-hrs, read-out: viable cells relative to the starting point (control)): 27.7%
viability at 72 h, 10 µM ([3]; 10.0 μM, 72-hrs, read-out: viable cells relative to the starting point (control)): 28.5%
viability at 120 h, 10 µM ([3]; 10.0 μM, 120-hrs, read-out: viable cells relative to the starting point (control)): 35.5%
maximal human lymphocyte stimulation concentration (human PBMC lymphocytes): 3 µM
EC50 (human PMBC lymphocytes; 24 hr incubation): 1640 nM
EC50 (human PMBC lymphocytes; 72 hr incubation): 3480 nM
EC50 (human PMBC lymphocytes; 120 hr incubation): 3160 nM
